From patent US20160102052A1, “Use of Cysteamine in Treating Infections caused by Yeasts/Moulds” (priority 2014, published 2016)
Like-named read-outs stand apart in the source and are kept apart here.

Test system: Exophiala dermatitidis CA01
Experiment: Broth microdilution chequerboard analysis of Lynovex (NM001) in combination with clinical antifungals
Type: cell-based
Conditions: for MIC: Exophiala dermatitidis, CA01, 72 h, antifungal in isolation, read-out: Antifungal MIC100; for MIC / Antifungal MIC100 in Combination: 72 h; for MIC / Antifungal MIC100 in Combination / Antifungal MIC50 in Combination: 35° C.; for FICI: antifungal with Lynovex (NM001), <0.5 Synergy, 0.5-1 Additive, >1 Indifference; for Antifungal MIC100 in Combination / Antifungal MIC50 in Combination: in combination with Lynovex (NM001)
Procedure: The aim of the experiment was to determine the effect of Lynovex (NM001) on the antifungal drug susceptibility of Exophiala dermatitidis CA01. Microtitre plates were prepared following CLSI recommendations for broth microdilution chequerboard method. These plates contained a serial doubling dilution of Lynovex (NM001) combined with serial doubling dilutions of antifungals drugs; Fluconazole, Itraconazole, Caspofungin and Amphotericin B. […] These were incubated at 35° C. and read at 72 h, 96 h, 120 h and 144 h on the BioTek plate reader. […] Three independent E. dermatitidis CA01 cultures were grown on PDA slope for 6 days at 35° C. • 7. Cultures were removed from incubator. 2 ml sterile 0.15M NaCl added to the overnight culture and cells harvested from the surface of the agar. Cells placed in fresh bijou tube. • 8. The cultures were allowed to rest for up to 10 minutes, allowing any hyphae to settle to the bottom. The top layer of conidia was removed into fresh bijou. Hyphae were discarded. • 9. […] This is continued to F12 where 100 μl is removed and discarded. • f. This dilution series was repeated in rows G-H for the remaining 2 cultures • g. Plate read at OD530 on BioTek • h. […] This preparation step occurs in two parts. First, Lynovex (NM001) and antifungals are serially diluted, down and across microtitre plates, respectively. Equal volumes of Lynovex and antifungal are then combined in a fresh microtitre plate, prior to inoculation. […] Stock solutions of Lynovex and antifungals were prepared at 4× desired concentrations. The plate layout at the end of this protocol is the final concentration in the plate following the combination of Lynovex and antifungals and the addition of the inocula. […] All other wells contain 150 μl sterile dH2O. • 9. Serial doubling dilutions are carried out from A to B whereby 150 μl is removed from A and placed into B and mixed well. Then take 150 μl B and place in C and mix well. This is repeated down to row G where the final 150 μl is discarded. […] The same procedure is repeated for the other 4 antifungals, carrying the dilutions across the plate i.e. […] At the final dilution in column 10, the final 150 μl is discarded. […] Inoculating Plates with E. dermatitidis CA01 • 6. Add 100 μl (total volume 200 μl) of the prepared E. dermatitidis CA01 culture to the all wells on the plate except wells H12. […] H12 will contain 100 μl water and 100 μl 2×RPMI-1640 alone, constituting an uninoculated control. • 8. The plate is read in the BioTek at OD530. • 9. Plates are then placed in a plastic box containing a Petri dish of water, sealed and incubated at 35° C. The presence of the water in the dish or on the tissue provides and environment of relatively high humidity. • 10. OD530 is then read at 72 h, 96 h, 120 h and 144 h and raw data processed using Microsoft Excel. • 11. Fractional Inhibitory Concentration (FIC) Index values are generated using MIC100 for 72 h data and MIC50 for later time points using the following formula: […]

CC[C@H](C)C[C@H](C)CCCCCCCCC(=O)N[C@H]1C[C@@H](O)[C@@H](NCCN)NC(=O)[C@@H]2[C@@H](O)CCN2C(=O)[C@H]([C@H](O)CCN)NC(=O)[C@H]([C@H](O)[C@@H](O)c2ccc(O)cc2)NC(=O)[C@@H]2C[C@@H](O)CN2C(=O)[C@H]([C@@H](C)O)NC1=O [Caspofungin]
MIC (GEOMEAN): 25 µg/mL | MIC (MEAN): 26 µg/mL | MIC (Range): 15.6 to 31.2 µg/mL | FICI (GEOMEAN, MIC50, 96 h): 0.48 (4) | FICI (GEOMEAN, MIC50, 120 h): 0.24 (4) | FICI (GEOMEAN, MIC50, 144 h): 0.41 (3) | FICI (GEOMEAN, MIC100, 72 h): 0.25 (1) | Antifungal MIC100 in Combination (GEOMEAN): 2.0 µg/mL | Antifungal MIC50 in Combination (GEOMEAN, 96 h): 11.84 µg/mL | Antifungal MIC50 in Combination (GEOMEAN, 120 h): 1.95 µg/mL | Antifungal MIC50 in Combination (GEOMEAN, 144 h): 3.91 µg/mL | FICI (MEAN, MIC50, 96 h): 0.58 (4) | FICI (MEAN, MIC50, 120 h): 0.27 (4) | FICI (MEAN, MIC50, 144 h): 0.52 (3) | FICI (MEAN, MIC100, 72 h): 0.25 (1) | Antifungal MIC100 in Combination (MEAN): 2.0 µg/mL | Antifungal MIC50 in Combination (MEAN, 96 h): 14.84 µg/mL | Antifungal MIC50 in Combination (MEAN, 120 h): 4.20 µg/mL | Antifungal MIC50 in Combination (MEAN, 144 h): 6.51 µg/mL | Antifungal MIC100 in Combination (Range): 2.0 µg/mL | Antifungal MIC50 in Combination (Range, 96 h): 3.91 to 31.25 µg/mL | Antifungal MIC50 in Combination (Range, 120 h): 0.49 to 15.625 µg/mL | Antifungal MIC50 in Combination (Range, 144 h): 0.23 µg/mL

OC(Cn1cncn1)(Cn1cncn1)c1ccc(F)cc1F [Fluconazole]
MIC (GEOMEAN): 250 µg/mL | MIC (MEAN): 250 µg/mL | MIC (Range): 250 µg/mL | FICI (GEOMEAN, MIC50, 96 h): 0.44 (6) | FICI (GEOMEAN, MIC50, 120 h): 0.41 (4) | FICI (GEOMEAN, MIC50, 144 h): 0.53 (4) | FICI (GEOMEAN, MIC100, 72 h): 0.42 (3) | Antifungal MIC100 in Combination (GEOMEAN): 25 µg/mL | Antifungal MIC50 in Combination (GEOMEAN, 96 h): 35 µg/mL | Antifungal MIC50 in Combination (GEOMEAN, 120 h): 44 µg/mL | Antifungal MIC50 in Combination (GEOMEAN, 144 h): 63 µg/mL | FICI (MEAN, MIC50, 96 h): 0.45 (6) | FICI (MEAN, MIC50, 120 h): 0.42 (4) | FICI (MEAN, MIC50, 144 h): 0.55 (4) | FICI (MEAN, MIC100, 72 h): 0.43 (3) | Antifungal MIC100 in Combination (MEAN): 34 µg/mL | Antifungal MIC50 in Combination (MEAN, 96 h): 51 µg/mL | Antifungal MIC50 in Combination (MEAN, 120 h): 59 µg/mL | Antifungal MIC50 in Combination (MEAN, 144 h): 98 µg/mL | Antifungal MIC100 in Combination (Range): 7.81 to 62.5 µg/mL | Antifungal MIC50 in Combination (Range, 96 h): 7.81 to 125 µg/mL | Antifungal MIC50 in Combination (Range, 120 h): 15.63 to 125 µg/mL | Antifungal MIC50 in Combination (Range, 144 h): 15.63 to 250 µg/mL

CCC(C)n1ncn(-c2ccc(N3CCN(c4ccc(OCC5COC(Cn6cncn6)(c6ccc(Cl)cc6Cl)O5)cc4)CC3)cc2)c1=O (stereo not drawn) [Itraconazole]
MIC (GEOMEAN): 4.5 µg/mL | MIC (MEAN): 4.7 µg/mL | MIC (Range): 4 to 8 µg/mL | FICI (GEOMEAN, MIC50, 96 h): 0.27 (7) | FICI (GEOMEAN, MIC50, 120 h): 0.18 (5) | FICI (GEOMEAN, MIC50, 144 h): 0.18 (3) | FICI (GEOMEAN, MIC100, 72 h): 0.18 (5) | Antifungal MIC100 in Combination (GEOMEAN): 0.14 µg/mL | Antifungal MIC50 in Combination (GEOMEAN, 96 h): 0.37 µg/mL | Antifungal MIC50 in Combination (GEOMEAN, 120 h): 0.19 µg/mL | Antifungal MIC50 in Combination (GEOMEAN, 144 h): 0.20 µg/mL | FICI (MEAN, MIC50, 96 h): 0.32 (7) | FICI (MEAN, MIC50, 120 h): 0.20 (5) | FICI (MEAN, MIC50, 144 h): 0.19 (3) | FICI (MEAN, MIC100, 72 h): 0.19 (5) | Antifungal MIC100 in Combination (MEAN): 0.24 µg/mL | Antifungal MIC50 in Combination (MEAN, 96 h): 0.74 µg/mL | Antifungal MIC50 in Combination (MEAN, 120 h): 0.33 µg/mL | Antifungal MIC50 in Combination (MEAN, 144 h): 0.27 µg/mL | Antifungal MIC100 in Combination (Range): 0.03 to 0.5 µg/mL | Antifungal MIC50 in Combination (Range, 96 h): 0.06 to 2 µg/mL | Antifungal MIC50 in Combination (Range, 120 h): 0.06 to 1 µg/mL | Antifungal MIC50 in Combination (Range, 144 h): 0.06 to 0.5 µg/mL
